Results: patent publication US11427783B2, “Perfuming compositions” (Firmenich SA, priority 2016, dated 2022)
Where a name gives a salt, the structure may show the parent alone. Read-outs that look alike come from different tables or passages of the source.

How the values were obtained:
[1] = Volatility of perfuming compounds in air; format: physicochemical
[2] = Log P (n-octanol/water) of perfuming compounds
[3] = Odor threshold of perfuming compounds in air
[4] = Table 6, perfuming compounds having a fruity note
[5] = Table 8, perfuming compounds having a sweet note
[6] = Table 9, perfuming compounds having a gourmand note
[7] = n-octanol/water, perfuming compounds having a fruity note (Table 6)
[8] = Table 10, perfuming compounds having a woody note

CCCCCCC1CCCC(=O)O1 (stereo not drawn) [6-hexyltetrahydro-2H-pyran-2-one]
Volatility (μg/l air) [1, 4]: 4.64 μg/l air
Volatility (μg/l air) [1, 5]: 4.64 μg/l air
Volatility (μg/l air) [1, 6]: 4.64 μg/l air
logP (physchem; n-octanol/water): 3
Log P (n-octanol/water) [2, 5]: 3.00
Log P (n-octanol/water) [2, 6]: 3.00

C=C(C)C1CC=C(C)CC1 (single isomer, unassigned; (+)) [(+)-LIMONENE]
Odor Threshold ([3]; Table 7, citrus note): 1.29E−01 μg/l air

CCCCC/C=C/CCC=O [(E)-4-DECENAL]
Volatility ([1]; Table 7, citrus note): 691.34 μg/l air
Odor Threshold ([3]; Table 7, citrus note): 7.59E−05 μg/l air

COc1cc(C=O)ccc1O [4-hydroxy-3-methoxybenzaldehyde]
Volatility (μg/l air) [1, 5]: 4.24 μg/l air
Volatility (μg/l air) [1, 6]: 4.24 μg/l air
logP (physchem; n-octanol/water): 0.72
Log P (n-octanol/water) [2, 6]: 0.72

C=CCSSCC=C [DIALLYL DISULFIDE]
Volatility (μg/l air) [1, 5]: 5487.52 μg/l air
Volatility (μg/l air) [1, 6]: 5487.52 μg/l air
logP (physchem): 3.3
Log P (n-octanol/water) [2, 6]: 3.30

CCCC(S)CCOC(C)=O (racemic) [(+−)-3-mercaptohexyl acetate]
logP (physchem; n-octanol/water): 2.64
Log P (n-octanol/water) [2, 7]: 2.64

C=C(C)CC(C)OC(=O)C(C)C (racemic)
Volatility (μg/l air) [1, 5]: 9902.98 μg/l air
Volatility (μg/l air) [1, 6]: 9902.98 μg/l air
logP (physchem; n-octanol/water): 3.57
Log P (n-octanol/water) [2, 5]: 3.57
Log P (n-octanol/water) [2, 6]: 3.57

C/C=C(\C)C(=O)OCCCCCC [hexyl (2E)-2-methyl-2-butenoate]
logP (physchem; n-octanol/water): 4.8
Log P (n-octanol/water) [2, 5]: 4.80
Log P (n-octanol/water) [2, 7]: 4.80

C/C=C/C(=O)C1=C(C)CCCC1(C)C
Volatility (μg/l air) [1, 4]: 81.66 μg/l air
Volatility (μg/l air) [1, 8]: 81.66 μg/l air
logP (physchem; n-octanol/water): 3.63
Log P (n-octanol/water) [2, 8]: 3.63

CC/C=C\CC1=C(C)CCC1=O
Volatility (μg/l air) [1, 5]: 56.72 μg/l air
Volatility (μg/l air) [1, 6]: 56.72 μg/l air
logP (physchem; n-octanol/water): 2.61
Log P (n-octanol/water) [2, 6]: 2.61

CC(=O)OCC=C(C)C [3-methyl-2-buten-1-yl acetate]
logP (physchem; n-octanol/water): 2.19
Log P (n-octanol/water) [2, 7]: 2.19

O=C(Cc1ccccc1)OCCc1ccccc1 [2-PHENYLETHYL PHENYLACETATE]
logP (physchem): 3.59
Log P (n-octanol/water) ([2]; Table 7, citrus note): 3.59
Log P (n-octanol/water) [2, 5]: 3.59
Log P (n-octanol/water) [2, 6]: 3.59

CC(C)c1cccc(C(C)CC=O)c1 (racemic) [(+−)-3-(3-ISOPROPYL-1-PHENYL)BUTANAL]
Volatility ([1]; Table 4, watery note): 14.74 μg/l air
Volatility ([1]; Table 5, perfuming compounds having a green note): 14.74 μg/l air
Odor Threshold ([3]; Table 4, watery note): 7.71E−04 μg/l air

CC(OC=O)C1CCCC(C)(C)C1 (stereo not drawn) [1-(3,3-DIMETHYL-1-CYCLOHEXYL)ETHYL FORMATE]
logP (physchem; n-octanol/water): 4.01
Odor Threshold ([3]; Table 7, citrus note): 2.05E−01 μg/l air

CCCCCCOC(C)=O [HEXYL ACETATE]
logP (physchem; n-octanol/water): 3.09
Log P (n-octanol/water) [2, 7]: 3.09

CC/C=C\CCOC(=O)CCC [(3Z)-3-hexen-1-yl butyrate]
logP (physchem; n-octanol/water): 3.59
Log P (n-octanol/water) [2, 7]: 3.59

CCCCCC(=O)OCC [ETHYL HEXANOATE]
logP (physchem; n-octanol/water): 3.12
Log P (n-octanol/water) [2, 5]: 3.12
Log P (n-octanol/water) [2, 6]: 3.12
Log P (n-octanol/water) [2, 7]: 3.12

CC(=O)OC(C)CCC=C(C)CCC=C(C)C (stereo not drawn) [1,5,9-TRIMETHYL-4,8-DECADIENYL ACETATE]
logP (physchem; n-octanol/water): 5.28
Log P (n-octanol/water) [2, 4]: 5.28

CCC(=O)OCc1ccccc1 [BENZYL PROPANOATE]
logP (physchem; n-octanol/water): 2.35
Log P (n-octanol/water) [2, 4]: 2.35

CCCCCCCC1CCCC(=O)O1 (racemic) [(+−)-6-heptyltetrahydro-2H-pyran-2-one]
Volatility (μg/l air) [1, 4]: 0.90 μg/l air
Volatility (μg/l air) [1, 5]: 0.90 μg/l air
Volatility (μg/l air) [1, 6]: 0.90 μg/l air
logP (physchem; n-octanol/water): 3.42
Log P (n-octanol/water) [2, 5]: 3.42
Log P (n-octanol/water) [2, 6]: 3.42

C=C(C)CC(C(C)=O)C(=O)OCC (racemic)
logP (physchem; n-octanol/water): 2.15
Log P (n-octanol/water) [2, 7]: 2.15

CCCCC/C(C=O)=C\c1ccccc1 [(E)-2-PENTYL-3-PHENYL-2-PROPENAL]
logP (physchem; n-octanol/water): 4.3
Log P (n-octanol/water) ([2]; Table 7, citrus note): 4.30

CCCC(=O)OCC [ETHYL BUTANOATE]
logP (physchem; n-octanol/water): 2.03
Log P (n-octanol/water) [2, 7]: 2.03

CCCCC(CC)C(=O)OC (racemic) [(+−)-methyl 2-ethylhexanoate]
Volatility (μg/l air) [1, 8]: 6677.64 μg/l air
logP (physchem; n-octanol/water): 3.37
Log P (n-octanol/water) [2, 8]: 3.37

CCCC1CCCC(=O)O1 (racemic) [(+−)-6-propyltetrahydro-2H-pyran-2-one]
logP (physchem; n-octanol/water): 1.47
Log P (n-octanol/water) ([2]; Table 7, citrus note): 1.47

CCCOC(=O)[C@H](C)OC(C)(C)CC [(−)-PROPYL (S)-2-(1,1-DIMETHYLPROPOXY)PROPANOATE]
logP (physchem; n-octanol/water): 3.17
Odor Threshold ([3]; Table 7, citrus note): 4.98E−01 μg/l air

C=CC(C)(O)CCC=C(C)C (racemic) [(+−)-3,7-dimethyl-1,6-octadien-3-ol]
Odor Threshold ([3]; Table 7, citrus note): 8.89E−05 μg/l air

CC/C=C\CCOC(=O)c1ccccc1 [(3Z)-3-hexen-1-yl benzoate]
logP (physchem; n-octanol/water): 4.21
Log P (n-octanol/water) [2, 4]: 4.21
Log P (n-octanol/water) ([2]; Table 7, citrus note): 4.21
